We go through one compound from US8815847B2, “[1,2,4]thiadiazine 1,1-dioxide compounds for lowering serum uric acid” (Anadys Pharmaceuticals, Inc., priority 2011, dated 2014).

As a reminder, the melting point is the temperature, or range, at which the solid turns liquid.

Structures are written as SMILES.

On to `CS(=O)(=O)Nc1ccc2c(c1)S(=O)(=O)N=C(C1=C(O)[C@@H]3C4CCC(CC4)[C@@H]3N(Cc3ccc(F)cc3)C1=O)N2`, for which the melting point fell in the range of 203.8 to 205.7 °C.
